Measurements published in patent US20230086703A1, “N-(4-(5-chloropyridin-3-yl)phenyl)-2-(2-(cyclopropanesulfonamido)pyrimidin-4-yl) butanamide derivatives and related compounds as human CTPS1 inhibitors for the treatment of proliferative diseases” (Step Pharma S.A.S., priority 2019, published 2023).
Read-outs that look alike come from different tables or passages of the source.

Biological target: T1, human CTPS1 (Homo sapiens, UniProt P17812)
T1 construct: FLAG (with GG linker); His8 (with GG linker); purchased Proteros biostructures GmbH
T1 sequence (P17812 1-591): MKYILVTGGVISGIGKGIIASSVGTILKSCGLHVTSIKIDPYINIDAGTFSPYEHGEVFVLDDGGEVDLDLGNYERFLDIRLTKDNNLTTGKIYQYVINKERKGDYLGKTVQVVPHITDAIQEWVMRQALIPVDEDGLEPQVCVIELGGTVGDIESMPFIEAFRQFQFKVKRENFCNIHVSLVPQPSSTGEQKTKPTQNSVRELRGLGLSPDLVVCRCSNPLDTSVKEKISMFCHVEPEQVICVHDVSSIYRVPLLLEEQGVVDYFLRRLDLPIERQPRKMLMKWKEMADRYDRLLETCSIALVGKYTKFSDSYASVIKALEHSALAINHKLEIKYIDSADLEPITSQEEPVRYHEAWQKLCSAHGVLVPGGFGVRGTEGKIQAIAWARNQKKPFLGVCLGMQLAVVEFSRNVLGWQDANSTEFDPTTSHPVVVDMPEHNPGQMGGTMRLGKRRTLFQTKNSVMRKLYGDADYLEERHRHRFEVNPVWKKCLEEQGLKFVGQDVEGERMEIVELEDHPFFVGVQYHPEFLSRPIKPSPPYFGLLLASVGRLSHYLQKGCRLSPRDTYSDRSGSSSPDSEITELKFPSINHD
Assay: Human CTPS1 enzyme inhibition, ADP-Glo Max assay
Assay type: biochemical
Method: The enzyme inhibitory activities of compounds invented against the target of interest were determined using the ADP-Glo™ Max assay (Promega, UK). Assays for human CTPS1 were performed in 1× assay buffer containing 50 mM Tris, 10 mM MgCl2, 0.01% Tween-20, pH to 8.0 accordingly. Finally, immediately before use, L-cysteine was added to the 1× assay buffer to a final concentration of 2 mM. All reagents are from Sigma-Aldrich unless specified otherwise.
3× human CTPS1 protein was prepared in 1× assay buffer to the final working protein concentration required for the reaction. A 2 uL volume per well of 3× human CTPS1 protein was mixed with 2 uL per well of 3× test compound (compound prepared in 1× assay buffer to an appropriate final 3× compound concentration respective to the concentration response curve designed for the compounds under test) for 10 minutes at 25° C. […] ADP-Glo™ Max reagent was added for 60 minutes (6 μL per well) and subsequently ADP-Glo™ Max development reagent was added for 60 minutes (12 uL per well) prior to signal detection in a microplate reader (EnVision® Multilabel Reader, Perkin Elmer). Following each reagent addition over the course of the assay, assay plates were pulse centrifuged for 30 seconds at 500 rpm.
In all cases, the enzyme converts ATP to ADP and the ADP-Glo™ Max reagent subsequently depletes any remaining endogenous ATP in the reaction system. The ADP-Glo™ Max detection reagent converts the ADP that has been enzymatically produced back into ATP and using ATP as a substrate together with luciferin for the enzyme luciferase, light is generated which produces a detectable luminescence. […] The percentage inhibition produced by each concentration of compound was calculated using the equation shown below: […]

[1] = ADP-Glo Max assay, Table 10, read-out: Human CTPS1 Enzyme Inhibition, IC50 grouped by potency range (CTPS1)
[2] = Table 12, ADP-Glo Max assay, read-out: CTPS1 (Human CTPS1 Enzyme Inhibition data grouped by potency range)

Row | Compound | IC50 [1] [nM] | other results
1 | CCC(C(=O)Nc1ccc(-c2cncc(F)c2)cc1)c1csc(NS(=O)(=O)C2CC2)n1 (single isomer, unassigned) [T72, 2-(2-(cyclopropanesulfonamido)thiazol-4-yl)-N-(4-(5-fluoropyridin-3-yl)phenyl)butanamide] | < 100 | –
2 | CCC(C(=O)Nc1ccc(-c2cncc(C(F)(F)F)n2)cc1)c1csc(NS(=O)(=O)C2CC2)n1 (single isomer, unassigned) [T106, 2-(2-(cyclopropanesulfonamido)thiazol-4-yl)-N-(4-(6-(trifluoromethyl)pyrazin-2-yl)phenyl)butanamide] | < 100 | –
3 | COc1cncc(-c2ccc(NC(=O)C(OC)c3csc(NS(=O)(=O)C4CC4)n3)cc2)n1 (single isomer, unassigned) [T107, 2-(2-(cyclopropanesulfonamido)thiazol-4-yl)-2-methoxy-N-(4-(6-methoxypyrazin-2-yl)phenyl)acetamide] | < 100 | –
4 | COC(C(=O)Nc1ccc(-c2cncc(C(F)(F)F)n2)cc1F)c1csc(NS(=O)(=O)C2CC2)n1 (single isomer, unassigned) [T458, 2-(2-(cyclopropanesulfonamido)thiazol-4-yl)-N-(2-fluoro-4-(6-(trifluoromethyl)pyrazin-2-yl)phenyl)-2-methoxyacetamide] | < 100 | –
5 | COC(C(=O)Nc1ccc(-c2cncc(C(F)(F)F)n2)cc1F)c1csc(NS(=O)(=O)C2CC2)n1 (single isomer, unassigned) [T459, 2-(2-(cyclopropanesulfonamido)thiazol-4-yl)-N-(2-fluoro-4-(6-(trifluoromethyl)pyrazin-2-yl)phenyl)-2-methoxyacetamide] | < 100 | –
6 | CCOc1cncc(-c2ccc(NC(=O)C3(c4ccnc(NS(=O)(=O)C5CC5)n4)CCN(C(=O)OC(C)(C)C)CC3)nc2)n1 [P139, tert-butyl 4-(2-(cyclopropanesulfonamido)pyrimidin-4-yl)-4-((5-(6-ethoxypyrazin-2-yl)pyridin-2-yl)carbamoyl)piperidine-1-carboxylate] | – | IC50 (ADP-Glo Max assay, human full length CTPS1, read-out: CTPS1 (Human CTPS1 Enzyme Inhibition data grouped by potency range, IC50)): < 100 nM
7 | CCOc1cnc(-c2ccc(NC(CC)c3ccnc(NS(=O)(=O)C4CC4)n3)cc2)cn1 (stereo not drawn) [P261] | – | IC50 [2]: 100 to 1000 nM
8 | CCOc1cncc(-c2ccc(NC(=O)C3(c4ccnc(NS(=O)(=O)C5CC5)n4)CCN(C(=O)COC)CC3)nc2)n1 [P288] | – | IC50 [2]: < 100 nM
9 | CCOC(=O)CN1CCC(C(=O)Nc2ccc(-c3cncc(OCC)n3)cn2)(c2nccc(NS(=O)(=O)C3CC3)n2)CC1 [P295] | – | IC50 [2]: < 100 nM
10 | CCOc1cncc(-c2ccc(NC(=O)C3(c4ccnc(NS(=O)(=O)CC)n4)CCN(C(=O)COC)CC3)nc2)n1 [P296] | – | IC50 [2]: < 100 nM
11 | CCOc1cncc(-c2ccc(NC(=O)C3(c4ccnc(NS(=O)(=O)C5CC5)n4)CCC(N)CC3)nc2)n1 (stereo not drawn) [P304] | – | IC50 [2]: < 100 nM
12 | CCOc1cncc(-c2ccc(NC(=O)C3(c4ccnc(NS(=O)(=O)C5CC5)n4)CCC(N(C)CC(F)F)CC3)nc2)n1 (stereo not drawn) [P310] | – | IC50 [2]: < 100 nM
13 | CCOc1cncc(-c2ccc(NC(=O)C3(c4ccnc(NS(=O)(=O)C5CC5)n4)CCC(N4CCN(C)CC4)CC3)nc2)n1 (stereo not drawn) [P311] | – | IC50 [2]: 100 to 1000 nM
14 | CCOc1cncc(-c2ccc(CNC(C)(C)c3csc(NS(=O)(=O)C4CC4)n3)c(F)c2)n1 [R94, N-(4-(2-((4-(6-Ethoxypyrazin-2-yl)-2-fluorobenzyl)amino)propan-2-yl)thiazol-2-yl)cyclopropanesulfonamide] | – | inhibition of CTPS1 enzyme (result in words) (ADP-Glo Max assay): activity is retained; IC50 (Table 14, ADP-Glo Max assay, read-out: CTPS1 (Human CTPS1 Enzyme Inhibition data grouped by potency range)): < 100 nM
15 | O=C(Cc1csc(NS(=O)(=O)C2CC2)n1)Nc1ccc(-c2cncnc2)nc1 [T23, 2-(2-(cyclopropanesulfonamido)thiazol-4-yl)-N-(6-(pyrimidin-5-yl)pyridin-3-yl)acetamide] | 100 to 1000 | –
16 | O=C(Cc1csc(NS(=O)(=O)C2CC2)n1)Nc1ccc(-c2ccc(F)cc2)cc1 [T25, 2-(2-(cyclopropanesulfonamido)thiazol-4-yl)-N-(4′-fluoro-[1,1′-biphenyl]-4-yl)acetamide] | 1000 to 10000 | –
17 | CN(C(=O)Cc1csc(NS(=O)(=O)C2CC2)n1)c1ccc(-c2cccnc2)cc1 [T26, 2-(2-(cyclopropanesulfonamido)thiazol-4-yl)-N-methyl-N-(4-(pyridin-3-yl)phenyl)acetamide] | 100 to 1000 | –
18 | COc1cccc(-c2ccc(NC(=O)C(C)(C)c3csc(NS(=O)(=O)C4CC4)n3)cc2)c1 [T28, 2-(2-(cyclopropanesulfonamido)thiazol-4-yl)-N-(3′-methoxy-[1,1′-biphenyl]-4-yl)-2-methylpropanamide] | 100 to 1000 | –
19 | Cc1cncc(-c2ccc(NC(=O)C(C)(C)c3csc(NS(=O)(=O)C4CC4)n3)cc2)c1 [T30, 2-(2-(cyclopropanesulfonamido)thiazol-4-yl)-2-methyl-N-(4-(5-methylpyridin-3-yl)phenyl)propanamide] | < 100 | –
20 | CC(C)(C(=O)Nc1ccc(-c2ccnnc2)cc1)c1csc(NS(=O)(=O)C2CC2)n1 [T31, 2-(2-(cyclopropanesulfonamido)thiazol-4-yl)-2-methyl-N-(4-(pyridazin-4-yl)phenyl)propanamide] | 1000 to 10000 | –
21 | CC(C)(C(=O)Nc1ccc(-c2cnccn2)cc1)c1csc(NS(=O)(=O)C2CC2)n1 [T32, 2-(2-(cyclopropanesulfonamido)thiazol-4-yl)-2-methyl-N-(4-(pyrazin-2-yl)phenyl)propanamide] | < 100 | –
22 | CC(C)(C(=O)Nc1ccc(-c2cnccn2)c(C#N)c1)c1csc(NS(=O)(=O)C2CC2)n1 [T34, N-(3-cyano-4-(pyrazin-2-yl)phenyl)-2-(2-(cyclopropanesulfonamido)thiazol-4-yl)-2-methylpropanamide] | 100 to 1000 | –
23 | CC(C)(C(=O)Nc1ccc(-c2cccnc2)c(F)c1F)c1csc(NS(=O)(=O)C2CC2)n1 [T36, 2-(2-(cyclopropanesulfonamido)thiazol-4-yl)-N-(2,3-difluoro-4-(pyridin-3-yl)phenyl)-2-methylpropanamide] | 100 to 1000 | –
24 | CC(C)(C(=O)Nc1ncc(-c2cccnc2)cn1)c1csc(NS(=O)(=O)C2CC2)n1 [T37, 2-(2-(cyclopropanesulfonamido)thiazol-4-yl)-2-methyl-N-(5-(pyridin-3-yl)pyrimidin-2-yl)propanamide] | 100 to 1000 | –
25 | CCCOc1cncc(-c2ccc(NC(=O)C(C)(C)c3csc(NS(=O)(=O)C4CC4)n3)nc2)n1 [T38, 2-(2-(cyclopropanesulfonamido)thiazol-4-yl)-2-methyl-N-(5-(6-propoxypyrazin-2-yl)pyridin-2-yl)propanamide] | < 100 | –
26 | CC(C)(C(=O)Nc1ccc(-c2cccnc2)cc1OC(F)(F)F)c1csc(NS(=O)(=O)C2CC2)n1 [T40, 2-(2-(cyclopropanesulfonamido)thiazol-4-yl)-2-methyl-N-(4-(pyridin-3-yl)-2-(trifluoromethoxy)phenyl)propanamide] | < 100 | –
27 | COc1cc(NC(=O)C(C)(C)c2csc(NS(=O)(=O)C3CC3)n2)ccc1-c1cnccn1 [T43, 2-(2-(cyclopropanesulfonamido)thiazol-4-yl)-N-(3-methoxy-4-(pyrazin-2-yl)phenyl)-2-methylpropanamide] | 100 to 1000 | –
28 | COc1ncccc1-c1ccc(NC(=O)C(C)(C)c2csc(NS(=O)(=O)C3CC3)n2)cc1 [T44, 2-(2-(cyclopropanesulfonamido)thiazol-4-yl)-N-(4-(2-methoxypyridin-3-yl)phenyl)-2-methylpropanamide] | 100 to 1000 | –
29 | O=C(Cc1csc(NS(=O)(=O)C2CC2)n1)Nc1ccc(-c2cncc(CO)c2)cc1 [T45, 2-(2-(cyclopropanesulfonamido)thiazol-4-yl)-N-(4-(5-(hydroxymethyl)pyridin-3-yl)phenyl)acetamide] | 100 to 1000 | –
